In US20220249596A1, “PIC1 PEPTIDE COMPOSITIONS AND METHODS OF USE THEREOF FOR TREATMENT OF HYPOXIC ISCHEMIC ENCEPHALOPATHY” (REALTA HOLDINGS, LLC, priority 2019, published 2022):
No end group written: not given here.

Legend:
[1] = test system: apoptosis in cortex and hippocampus; experiment: TUNEL/DAPI/C1q staining of brain sections 48 hours after injury; format: in vivo, rat
Experimental: To assess the effect of PIC1 on cell death at 48 hours after the initial injury, TUNEL staining, alone or in combination with C1q staining, was utilized to measure DNA strand breaks that are generated during apoptosis.
(§1) TUNEL/C1q staining was performed as follows. Five (5) μm paraffin-embedded coronal brain sections on slides were incubated (1 hour; 60° C.), deparaffinized with xylene, and rehydrated with ethanol (100%, 95%, 70%; RT). Endogenous peroxidase activity was blocked (0.3% H2O2/MeOH; 10 minutes; RT), and heat induced antigen retrieval was performed (when indicated) using 10 mM sodium citrate, pH 6.0. 10% normal serum (from the same species as the host of the secondary antibody) was used to block and to dilute antibodies. Samples were washed twice for 10 min each, in PBST between each step.
For C1q/TUNEL co-staining, tissue was incubated with the TUNEL solution according to manufacturer's instructions (In Situ Cell Death Detection Kit, Roche Molecular Diagnostics, Pleasanton, Calif.), followed by blocking with NGS for one hour at room temperature. C1q was probed using 1:300 mouse anti-C1q (Abcam) in NGS for 30 min at 37° C., followed by incubation in 1:500 goat anti-mouse (Abcam) AF 568 for 30 min at 37° C. All samples were mounted with aqueous mounting media comprising 4′,6-diamidino-2-phenylindole (Vectashield antifade mounting medium with DAPI, Vector Laboratories, Burlingame, Calif.) and coverslipped.
Fluorescent images of the cortex were taken at 20× magnification using a digital camera (DP70, Olympus Center, Valley Forge, Pa.), mounted on a BX50 Olympus microscope. Adobe Photoshop CS5 was used to merge immunofluorescence images, and Image J (National Institutes of Health) was used for analysis.

C3 = experiment: Immunofluorescence quantification of C3 in brain; format: in vivo, rat; settings: ipsilateral cortex and hippocampus, 48 hours, versus NT, P<0.05
Experimental: as §1
After blocking for one hour at room temperature, tissues were incubated with 1:300 goat anti-Iba1 (Abcam), 1:250 goat anti-GFAP (Abcam), 1:500 chicken anti-NeuN (Millipore, Billerica, Mass.), or 1:100 mouse anti-NeuN (Millipore) in host appropriate blocking serum overnight at 4° C. Primary antibodies were probed with 1:500 donkey anti-goat (Abcam), goat anti-chicken (Abcam), or goat anti-mouse (Abcam) AF 488 or 568 in appropriate blocking serum for one hour at room temperature. Tissues were blocked a second time with NGS for one hour at room temperature. […]

“IALILEPICCQERAA-dPEG24 (cysteine pairing not given here) [PIC1]” was tested, and the “TUNEL positive cells (DNA fragmentation), cortex and hippocampus” value ([1]; 48 hours, versus NT (P=0.02) and HT (P=0.04)) was “significantly fewer”, the cell count ([1]; PIC1- versus HT-treated animals) was “no significant difference” and the nucleus size ([1]; versus NT (P=0.02) and HT (P=0.04)) was “significantly improved”. For the same substance, the “nuclear density by DAPI staining” value ([1]; versus NT animals, P=0.01) was “markedly improved”, the C1q/TUNEL co-localization ([1]; versus NT animals, ipsilateral cortex) was “qualitative reduction” and the “cell counts (stained nuclei)” value ([1]; versus NT, P=0.03) was “significantly improved”. The C3 expression (C3) was “decreased expression”.
